Data taken from patent US5103018A, “Mitomycin derivatives” (Kyowa Hakko Kogyo Kabushiki Kaisha, priority 1986, dated 1992).
Converted amounts (≈) assume the structure as drawn.

Legend:
Solubility in water = type: physicochemical; settings: water
[1] = tested on: Streptococcus faecalis ATCC 10541; assay: Minimum inhibitory concentration, agar dilution method, SF; type: cell-based; settings: Enterococcus faecalis, ATCC10541, pH 7, read-out: minimum inhibitory concentration, SF
From the text: (§1) Certain Compounds I were selected. Table 3 indicates their anti-bacterial activities in terms of their minimum inhibitory concentration (μg/ml), determined by the agar dilution method effected at a pH of 7.0. In this table, the microorganisms used are abbreviated as follows:
SF: Streptococcus faecalis ATCC 10541

in vivo = type: in vivo, mice (ddy strain); settings: mouse, in vivo, ip; read-out: (WBC4000/ED50)* = (WBC4000/ED50)/[(WBC4000/ED50) of MMC1]
Procedure: (§2) Certain compounds were selected from Compounds I. The following Table 4 indicates anti-tumour activity against Sarcoma 180 solid tumour (ED50), acute toxicity (LD50) and effects on the peripheral leucocytes (WBC4000) of each compound.
(4) Effect upon the number of the peripheral leucocytes:
Sarcoma 180 solid tumour cells (5×10^6) were subcutaneously implanted into the right armpit of each mouse (body weight 20±2 g) of a group consisting of 5 male mice (ddy strain). 24 hours after implantation,a test compound was abdominally administered to each mouse. 4 days later, blood (each 0.02 ml) was collected from the suborbital plexus vein of each tumour-carrying mouse. The collected sample of blood was dispersed in 9.98 ml of Cell-kit Seven solution. One drop of saponin solution was added to the sample to dissolve erythrocytes and then a microcell counter was used to measure the number of leucocytes. On graph paper, the number of leucocytes was indicated on the y-axis by an arithmetic scale and the does of the test compound was indicated on the x-axis by a logarithmic scale.
The relationship between the number of peripheral leucocytes and the dosage of the test compound was plotted to obtain WBC4000 viz. the dosage corresponding to […] per mm^3 (about half of the number of leucocytes of normal mice).

Acute toxicity = type: in vivo, mice (ddy); settings: mouse, in vivo, ip; for LD50 at 336 h: ddy mice, single i.p., 14 days, Behren Korber's method; for selectivity ratio: read-out: (C.I.)* = (LD50/ED50)/[(LD50/ED50) of MMC1]
Procedure: as §2
Each animal of the test group consisting of 5 ddy mice was once administered (i.p.) with a test compound. […] The LD50 was determined by Behren Korber's method.

Sarcoma 180 solid tumour = assay: animal or person; type: in vivo, mice (ddy strain); settings: Mus musculus, Sarcoma-180, ip, 168 h, read-out: ED50 ip
From the text: as §2
(1) Effect against Sarcoma 180 solid tumour:
5×10^6 cells of Sarcoma 180 solid tumour cells were abdominally implanted into male mice of ddy strain. 7 days after this, ascites cells were sampled. The cells were washed once with a sterilized physiological solution of sodium chloride and were used to prepare a cell suspension containing 5×10^7 cells per ml. On each occasion, 0.1 ml of the cell suspension was subcutaneously implanted into the right armpit of a male mouse (ddy strain; body weight 20±2 g). 24 hours after the implantation of the tumour cells, the test compound which was dissolved in a physiological solution of sodium chloride with or without addition of Tween 80 was abdominally administered to each mouse of a group consisting of 5 animals at a does of 0.1-0.2 ml. The anti-tumour activity was determined as follows:
7 days after the implantation, the major axis (a) and the minor axis (b) of the tumour were measured to calculate a value of "a×b^2 /2" which corresponds to the volume of the tumour. The anti-tumour activity was expressed by T/C viz. the ratio of the volume of the tumours (T) of the group of animals administered with the test compound to the corresponding volume of tumours (C) of the untreated animals.
(2) Determination of ED50 :
The term ED50 denotes the administered amount needed for reducing the volume of Sarcoma 180 solid tumours in the animals to 50% on the basis of the corresponding volume of Sarcoma 180 solid tumours in control (untreated) animals.
On graph paper, T/C was indicated by an arithmetic scale on the longitudinal axis and the administered amount of test compound was indicated by a logarithmic scale on the lateral axis.

[2] = tested on: Staphylococcus aureus ATCC 6583P; assay: Minimum inhibitory concentration, agar dilution method, SA; type: cell-based; settings: Staphylococcus aureus, ATCC6583P, pH 7, read-out: minimum inhibitory concentration, SA
From the text: as §1
SA: Staphylococcus aureus ATCC 6583P

[3] = tested on: Proteus vulgaris ATCC 6897; assay: Minimum inhibitory concentration, agar dilution method, PV; type: cell-based; settings: Proteus vulgaris, ATCC6897, pH 7, read-out: minimum inhibitory concentration, PV
From the text: as §1
PV: Proteus vulgaris ATCC 6897

[4] = tested on: Klebsiella pneumoniae ATCC 10031; assay: microbe, parasite or virus in culture; type: cell-based; settings: ATCC10031, pH 7, read-out: minimum inhibitory concentration, KP
From the text: Certain Compounds I were selected. […] In this table, the microorganisms used are abbreviated as follows:
KP: Klebsiella pneumoniae ATCC 10031

P388 Leukemia = assay: Effect upon Leukemia P 388; type: in vivo, mouse (CDF1); settings: single i.p., 33 days
Procedure: (5) Effect upon Leukemia P 388:
Ascites cells were collected from P388 Leukemia-carrying mouse (DBA/2) 7 days after the implantation. The number of the cells of P388 Leukemia in the sample was counted. A physiological solution of sodium chloride was sterilized and used to prepare a cell suspension containing 5×10^6 tumour cells per ml. On each occasion, 0.2 ml of the suspension containing 1×10^6 cells was implanted into the abdominal cavity of each mouse (CDF1; body weight 20~25 g). 24 hours after implantation, the test compound was once given to each mouse of a test group consisting of 6 mice by abdominal injection.
The activity of the test samples was determined by the ratio of the average survival days of the treated animals to the average survival days of untreated animals viz. ILS % (Increased Life Span).

Escherichia coli ATCC 26 = assay: Minimum inhibitory concentration, agar dilution method, EC; type: cell-based; settings: Escherichia coli, ATCC26, pH 7, read-out: minimum inhibitory concentration, EC
From the text: as §1
EC: Escherichia coli ATCC 26

| Compound | solubility (Solubility in water) [mg/mL] | MIC [1] [µg/mL] | selectivity ratio (in vivo) | LD50 at 336 h (Acute toxicity) [mg/kg] | selectivity ratio (Acute toxicity) | ED50 (Sarcoma 180 solid tumour) [mg/kg] | MIC [2] [µg/mL] | MIC [3] [µg/mL] | MIC [4] [µg/mL] | ILS* (ratio of ILS % to that of mitomycin C) (P388 Leukemia; dose 50 mg/kg) | MIC (Escherichia coli ATCC 26) [µg/mL] | ILS* (ratio of ILS % to that of mitomycin C) (P388 Leukemia; dose 20.3 mg/kg) |
| --- | --- | --- | --- | --- | --- | --- | --- | --- | --- | --- | --- | --- |
| CC1=C(NCCSSCCNC(=O)CC[C@H](N)C(=O)O)C(=O)C2=C(C1=O)N1C[C@H]3[C@H](N3C)[C@]1(O)[C@H]2COC(N)=O (stereo partly drawn) [Compound 2, 7-N-[2-[[2-(N^5 -L-glutamino)ethyl]dithio]ethyl]mitomycin D] | > 5 | 100 (≈ 167 µM) | 2.14 | 90 | 1.55 | 18 | 50 (≈ 83.5 µM) | 25 (≈ 41.8 µM) | > 100 | > 1.34 |  |  |
| CO[C@@]12[C@H](COC(N)=O)C3=C(C(=O)C(C)=C(NCCSSCCNC(=O)CC[C@@H](N)C(=O)O)C3=O)N1C[C@@H]1N[C@@H]12 [Compound 3, 7-N-[2-[[2-(N^5 -D-glutamino)ethyl]dithio]ethyl]mitomycin C] | > 20 | 3.1 (≈ 5.18 µM) | 3.02 | 22.5 | 1.46 | 5.7 | 1.6 (≈ 2.67 µM) | 0.8 (≈ 1.34 µM) | 0.8 (≈ 1.34 µM) |  | 50 (≈ 83.5 µM) |  |
| CO[C@@]12[C@H](COC(N)=O)C3=C(C(=O)C(C)=C(NCCSSCCCNC(=O)CC[C@H](N)C(=O)O)C3=O)N1C[C@@H]1N[C@@H]12 [Compound 4, 7-N-[2-[[3-(N^5 -L-glutamino)propyl]dithio]ethyl]mitomycin C] | > 20 | 3.1 (≈ 5.06 µM) | 1.27 | 22.5 | 1.52 | 5.1 | 1.6 (≈ 2.61 µM) | 3.1 (≈ 5.06 µM) | 0.8 (≈ 1.31 µM) |  | 250 (≈ 408 µM) |  |
| CO[C@@]12[C@H](COC(N)=O)C3=C(C(=O)C(C)=C(NCCSSCCCCNC(=O)CC[C@H](N)C(=O)O)C3=O)N1C[C@@H]1N[C@@H]12 [Compound 5, 7-N-[2-[[4-(N^5 -L-glutamino)butyl]dithio]ethyl]mitomycin C] | > 20 | 1.6 (≈ 2.55 µM) | 3.21 | 30 | 1.66 | 8.4 | 1.6 (≈ 2.55 µM) | 1.6 (≈ 2.55 µM) | 0.8 (≈ 1.28 µM) |  |  |  |
| CO[C@@]12[C@H](COC(N)=O)C3=C(C(=O)C(C)=C(NCCSSCCNC(=O)[C@@H](N)CCC(=O)O)C3=O)N1C[C@@H]1N[C@@H]12 [Compound 9, 7-N-[2-[[2-(N^2 -L-glutamino)ethyl]dithio]ethyl]mitomycin C] | > 20 |  |  |  |  | 7.7 |  |  |  |  |  |  |
| CO[C@@]12[C@H](COC(N)=O)C3=C(C(=O)C(C)=C(NCCSSCCNC(=O)c4cc(=O)[nH]c(=O)[nH]4)C3=O)N1C[C@@H]1N[C@@H]12 [Compound 14, 7-N-[2-[(2-orotamidoethyl)dithio]ethyl]mitomycin C] |  |  | 1.2 | 45 | 1.68 | 11.5 |  |  |  |  |  | > 2.60 |
